± gives the expanded uncertainty stated by the source.
Conditions: Crystal; visual observation

Normal melting temperature: 62.7 ± 0.4 °C
Structure (SMILES): CCCCCCCCCCCCCCCC(=O)O [hexadecanoic acid]

— the NIST ThermoML archive (doi:10.1021/je8005979)
